From ChEMBL document CHEMBL5126639, “Semisynthesis and Evaluation of Anti-Inflammatory Activity of the Cassane-Type Diterpenoid Taepeenin F and of Some Synthetic Intermediates” (J Nat Prod, 2022)
Calls of active or inactive are those of the source. The calls are words filed in the database; no cut-off is given here.

Tests used:
[1] = system: RAW264.7; assay: Inhibition of LPS-induced cell differentiation in mouse RAW264.7 cells at 0.25 to 0.75 IC50 concentration after 72 hrs by propidium iodide staining based flow cytometric analysis; format: functional; details: DDE = dose-dependent effect
[2] = system: B16-F10; assay: Induction apoptosis in mouse B16-F10 cells assessed as necrotic cells at IC80 concentration after 48 hrs by AnnexinV/propidium iodide staining based flow cytometric analysis (reference value: 8.2%); format: functional
[3] = Inhibition of LPS-induced cell cycle arrest in mouse RAW264.7 cells assessed as cell accumulation at G0/G1 phase at 0.25 to 0.75 IC50 concentration after 72 hrs by propidium iodide staining based flow cytometric analysis relative to control; format: functional; set-up: scale not given: the % may be the effect or the level left
[4] = system: B16-F10; assay: Induction apoptosis in mouse B16-F10 cells assessed as necrotic cells at IC50 concentration after 72 hrs by AnnexinV/propidium iodide staining based flow cytometric analysis (reference value: 9.9%); format: functional
[5] = system: B16-F10; assay: Induction of cell cycle arrest in mouse B16-F10 cells assessed as cells accumulation at G2/M phase at IC80 concentration after 72 hrs by propidium iodide staining based flow cytometric analysis (reference value: 3.16%); format: functional
[6] = Inhibition of LPS-induced cell cycle arrest in mouse RAW264.7 cells assessed as cell accumulation at G2/M phase at 0.25 to 0.75 IC50 concentration after 72 hrs by propidium iodide staining based flow cytometric analysis relative to control; format: functional; set-up: scale not given: the % may be the effect or the level left
[7] = system: B16-F10; assay: Induction apoptosis in mouse B16-F10 cells assessed as necrotic cells at IC50 concentration after 48 hrs by AnnexinV/propidium iodide staining based flow cytometric analysis (reference value: 8.2%); format: functional
[8] = system: B16-F10; assay: Induction apoptosis in mouse B16-F10 cells assessed as viable cells at IC80 concentration after 72 hrs by AnnexinV/propidium iodide staining based flow cytometric analysis (reference value: 87.8%); format: functional
[9] = system: B16-F10; assay: Induction apoptosis in mouse B16-F10 cells assessed as increase in apoptotic cells at IC50 to IC80 concentration after 48 to 72 hrs by AnnexinV/propidium iodide staining based flow cytometric analysis; format: functional, cell-based; details: time 48-72 hrs, DDE = dose-dependent effect
[10] = system: RAW264.7; assay: Anti-inflammatory activity against mouse RAW264.7 cells assessed as inhibition of LPS-induced NO production at 0.25 times of IC50 concentration after 24 to 72 hrs by griess reagent assay relative to control; format: functional, cell-based; details: time 24-72 hrs
[11] = system: B16-F10; assay: Induction of cell cycle arrest in mouse B16-F10 cells assessed as cells accumulation at G2/M phase at IC50 concentration after 72 hrs by propidium iodide staining based flow cytometric analysis (reference value: 3.16%); format: functional
[12] = system: B16-F10; assay: Induction apoptosis in mouse B16-F10 cells assessed as viable cells at IC80 concentration after 48 hrs by AnnexinV/propidium iodide staining based flow cytometric analysis (reference value: 86.9%); format: functional
[13] = Inhibition of LPS-induced cell cycle arrest in mouse RAW264.7 cells assessed as cell accumulation at S phase at 0.25 to 0.75 IC50 concentration after 72 hrs by propidium iodide staining based flow cytometric analysis relative to control; format: functional; set-up: scale not given: the % may be the effect or the level left
[14] = system: HT-29; assay: Antiproliferative activity against human HT-29 cells assessed as reduction in cell viability after 72 hrs by MTT assay; format: functional, cell-based; details: HT-29, 72 h
[15] = system: B16-F10; assay: Induction apoptosis in mouse B16-F10 cells assessed as viable cells at IC50 concentration after 48 hrs by AnnexinV/propidium iodide staining based flow cytometric analysis (reference value: 86.9%); format: functional
[16] = system: B16-F10; assay: Induction of cell cycle arrest in mouse B16-F10 cells assessed as cells accumulation at S phase at IC50 concentration after 72 hrs by propidium iodide staining based flow cytometric analysis (reference value: 39.21%); format: functional
[17] = system: B16-F10; assay: Induction apoptosis in mouse B16-F10 cells assessed as early apoptotic cells at IC50 concentration after 72 hrs by AnnexinV/propidium iodide staining based flow cytometric analysis (reference value: 0.1%); format: functional
[18] = system: HepG2; assay: Antiproliferative activity against human HepG2 cells assessed as reduction in cell viability after 72 hrs by MTT assay; format: functional, cell-based
[19] = system: RAW264.7; assay: Anti-inflammatory activity against mouse RAW264.7 cells assessed as inhibition of LPS-induced NO production after 48 hrs by griess reagent assay; format: functional, cell-based; details: RAW264.7, 48 h
[20] = system: Plasmodium falciparum; assay: Antimalarial activity against Plasmodium falciparum FCR-3/A2 erythrocytic stage infected in human erythrocytes assessed as reduction in parasite growth after 48 hrs by Giemsa staining based assay; format: functional, organism-based; details: FCR-3/A2, Erythrocyte
[21] = system: RAW264.7; assay: Anti-inflammatory activity against mouse RAW264.7 cells assessed as inhibition of LPS-induced NO production after 24 hrs by griess reagent assay; format: functional, cell-based; details: RAW264.7, 24 h

With COC(=O)[C@]1(C)CCC[C@]2(C)c3cc(O)c(C=O)c(C)c3CC[C@@H]12 the inhibition [1] was “Dde”, the Activity [2] was 2.2% and the Activity [3] was 68%. The Activity [4] was 0.9%, the Activity [5] was 0% and the Activity [6] was 0.3%. The Activity [7] was 2.8%, the Activity [8] was 57.9% and the Activity [9] was “Dde”. The inhibition [10] was “Active”, the Activity [11] was 0.18% and the Activity [12] was 64.9%. The Activity [13] was 69%.
In the case of COC(=O)[C@]1(C)CCC[C@]2(C)c3cc(O)c(C(C)C)c(C)c3CC[C@@H]12, the IC50 [14] is reported as 222 µM and the inhibition [10] is reported as “Active”.
With COC(=O)[C@]1(C)CCC[C@]2(C)c3cc4c(c(C)c3CC[C@@H]12)CC(=O)O4 the inhibition [10] was “Active”.
With COC(=O)[C@]1(C)CCC[C@@]2(C)[C@H]1CC=C1C(C)=C(C(C)C)C(=O)C[C@@H]12 the Activity [15] was 84.1%, the inhibition [1] was “Dde” and the Activity [2] was 2.8%. The Activity [16] was 38.83%, the Activity [3] was 68% and the Activity [17] was 0.1%. It also gave an Activity [4] of 3.8%, an Activity [5] of 1.22% and an Activity [6] of 0.3%. It also gave an Activity [7] of 2.7%, an Activity [8] of 47.5% and an IC80 [18] of 72.4 µM. The Activity [9] was “Dde”, the inhibition [10] was “Active” and the Activity [11] was 1.12%.
In the case of C[C@H]1c2ccoc2C[C@H]2[C@H]1[C@H]1O[C@H]1[C@@]1(O)C(C)(C)[C@@H](OC(=O)c3ccccc3)CC[C@]21C, the IC50 [19] is reported as 2.9 µM.
Work on CC(=O)O[C@H]1CC(C)(C)[C@]2(O)CCc3c(cc(O)c(C=O)c3C)[C@@]2(C)[C@H]1OC(C)=O [NORCAESALPININ C] yielded an IC50 [20] of 5 µM.
In the case of CC(=O)O[C@H]1[C@@H]2OC(=O)[C@@H]3c4ccoc4C[C@@H]([C@@H]23)[C@@]2(C)[C@@H](O)CCC(C)(C)[C@]12O, the IC50 [21] is reported as 25.4 µM.
In the case of COC(=O)[C@]1(C)CCC[C@]2(C)c3cc(O)c(CO)c(C)c3CC[C@@H]12, the inhibition [10] is reported as “Active”.
Work on CC(=O)O[C@H]1CCC(C)(C)[C@]2(O)[C@@H](OC(C)=O)[C@@H]3OC(=O)[C@@H]4c5ccoc5C[C@@H]([C@@H]34)[C@@]12C [CAESALPININ D] yielded an IC50 [21] of 25.4 µM.
